US12435062B2, “Amide compounds and uses thereof” (HUTCHISON MEDIPHARMA LIMITED, priority 2020, dated 2025)

Key:
[1] = biological target: Recombinant human CSF1R kinase (Homo sapiens (Human), UniProt P07333); format: biochemical; details: Z-LYTE Tyr 1 peptide substrate
Description: Measurement of CSF1R Kinase Activity at Molecular Level
1. Reagents and materials:
• Z-LYTE™ Tyr 1 peptide substrate: Invitrogen, PV3190; • 5× kinase buffer: Invitrogen, PV3189; • 10 mM ATP: Invitrogen, PV3227; • Development reagent B: Invitrogen, PV3295; • Development buffer: Invitrogen, P3127; • Stopping solution: Invitrogen, P3094; • Recombinant human CSF1R kinase: Invitrogen, PR4598A; • 384 well plate, black: Corning, 3575; Envision: Perkin Elmer. 2. Preparation of reaction solutions
1) 1.33× kinase buffer: 5× kinase buffer was diluted to a 1.33× kinase buffer with ddH2O.
2) Dilution of a 4× test compound: The test compound was diluted in gradient to 4-fold the reaction concentration and the concentration of DMSO was kept at 8%. The final concentration of the compound in reaction was: 1, 0.33, 0.11, 0.037, 0.012, 0.004, 0.0014, 0.00046 μM, and the final concentration of DMSO was 2%.
3) A mixture of kinase/peptide substrate: In 1.33× kinase buffer, the kinase and Z-LYTE™ Tyr 1 peptide substrate were diluted to 0.12 μg/mL and 4 μM, respectively, to prepare a mixture of kinase/peptide substrate. The mixture was mixed gently with a pipette.
4) A phosphorylated peptide substrate solution (PP solution): 0.4 μL of Z-LYTE™ Tyr1 phosphorylated peptide substrate was added to 99.6 μL of 1.33× kinase buffer.
5) ATP solution: 10 mM of ATP was diluted to 760 μM with 1.33× kinase buffer to prepare ATP solution.
6) Development solution: Development reagent B was diluted with Development buffer at a ratio of 1:200.
1) Kinase reaction (10 μL system)
2.5 μL of 4× test compound was added to each reaction well of the 384 plate, and the corresponding volume of 8% DMSO was added to the control well. The plate was placed on ice. 5 μL of a mixture of kinase/peptide substrate, 2.5 μL of kinase buffer and ATP solution were successively added to each well. Three control groups were set up: Group C1 contains only kinase buffer, group C2 contains the mixture of kinase/peptide substrate, kinase buffer and ATP, and group C3 contains 5 μL of PP solution. After adding the reaction components, the 384-well plate was sealed and incubated at 25-30° C. for 1 h in dark.
5 μL of Development solution was added to each well, sealed and incubated at 25-30° C. for another 1 h in dark.
3) Reaction stopping and plate reading
5 μL of stopping solution was added to each well. The Coumarin value (excitation at 400 nm, emission at 445 nm) and Fluorescein value (excitation at 400 nm, emission at 520 nm) were measured, respectively.
ER (emission ratio): Coumarin emission read-out (445 nm)/Fluorescein emission read-out (520 nm); • C3 445 nm: 100% phosphorylated Coumarin emission read-out; • C3 520 nm: 100% phosphorylated Fluorescein emission read-out; • C1 445 nm: 0% phosphorylated Coumarin emission read-out; • C1 520 nm: 0% phosphorylated Fluorescein emission read-out. Inhibition rate % (IR)=[1−% phosphorylation ratetest sample/100% phosphorylation ratecontrol]×100%
% phosphorylation ratetest sample: phosphorylation rate of the test compound; • 100% phosphorylation ratecontrol: phosphorylation rate of C3 control group.
5. IC50 values: calculated by using software XL-Fit™ (version 5.3) supplied by ID Business Solutions (Guildford, UK), which is an additional software to Microsoft Excel.

[2] = biological target: CSF1R phosphorylation in THP-1 cells (Homo sapiens (Human), UniProt P07333); test: Detection of CSF1R phosphorylation activity at cell level (THP-1, M-CSF stimulated, ELISA); format: cell-based; details: p-CSF1R ELISA, compound 60 min, 300 ng/mL M-CSF 1 min
CSF1R phosphorylation in THP-1 cells, sequence (P07333 20-972): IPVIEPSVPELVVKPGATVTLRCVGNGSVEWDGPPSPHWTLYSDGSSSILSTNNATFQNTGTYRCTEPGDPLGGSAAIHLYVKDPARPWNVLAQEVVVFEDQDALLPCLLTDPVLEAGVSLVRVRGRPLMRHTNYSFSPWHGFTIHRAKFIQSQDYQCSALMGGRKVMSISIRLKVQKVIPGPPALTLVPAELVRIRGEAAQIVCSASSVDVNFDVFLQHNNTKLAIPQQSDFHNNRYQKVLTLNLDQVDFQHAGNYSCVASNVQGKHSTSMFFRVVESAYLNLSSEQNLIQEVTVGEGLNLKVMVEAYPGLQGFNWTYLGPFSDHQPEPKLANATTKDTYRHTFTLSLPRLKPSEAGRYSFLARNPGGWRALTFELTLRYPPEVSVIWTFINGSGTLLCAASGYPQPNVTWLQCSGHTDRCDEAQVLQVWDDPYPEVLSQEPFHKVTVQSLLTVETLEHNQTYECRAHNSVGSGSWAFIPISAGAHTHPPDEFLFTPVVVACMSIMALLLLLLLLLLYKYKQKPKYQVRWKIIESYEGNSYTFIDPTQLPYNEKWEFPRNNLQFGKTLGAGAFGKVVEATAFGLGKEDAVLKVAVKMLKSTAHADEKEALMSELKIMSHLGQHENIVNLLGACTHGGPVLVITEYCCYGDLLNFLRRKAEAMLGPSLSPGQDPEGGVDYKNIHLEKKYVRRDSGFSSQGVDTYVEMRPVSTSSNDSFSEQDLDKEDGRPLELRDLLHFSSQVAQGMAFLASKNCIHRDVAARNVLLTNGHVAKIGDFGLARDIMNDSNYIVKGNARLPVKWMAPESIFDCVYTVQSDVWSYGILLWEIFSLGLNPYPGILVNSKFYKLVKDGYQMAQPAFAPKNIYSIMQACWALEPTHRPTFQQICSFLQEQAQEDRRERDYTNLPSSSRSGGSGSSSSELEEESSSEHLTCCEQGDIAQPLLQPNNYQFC
Description: Detection of CSF1R Phosphorylation Activity at Cell Level
THP-1 (ATCC), human acute monocytic leukemia cells. The cells were cultured in an RPMI 1640 medium containing 10% FBS.
(§1) 2. Reagents and instruments
• Human phosphorylation-CSF1R ELISA kit: R&D, #DYC3268-2; • RPMI 1640 culture solution: GIBCO, 910491; • Human M-CSF recombinant cytokine: R&D, 9216-MC-500; • Cell lysis buffer: Cell Signal, 99803S; • 1×PBS buffer (1 L): 8.0 g of NaCl, 0.2 g of KCl, 3.58 g of Na2HPO4-12H2O, 0.24 g of KH2PO4 were dissolved in 1 L of dd H2O, and the pH was adjusted to 7.4; • Blocking solution: PBS buffer containing 1% BSA; • PBST washing liquid: PBS buffer containing 0.05% Tween-20; • Chromogenic substrate: R&D, #DY999; • 2N H2SO4; • Microwell plate reader: Labsystems Multiskan K3: Thermo; Envision: Perkin Elmer; • ELISA plate: Corning, #9018; • Cell culture plate: Facol, #353027. 3. Treatment of cells and preparation of lysis buffer
THP-1 cells were resuspended in RPMI-1640 culture solution containing 2% FBS, and the culture was added to a 96-well plate at a density of 5×10^4/well, 50 μL/well, and cultured in a cell incubator at 5% CO2 and 37° C. overnight; The test compound was diluted with a serum-free RPMI-1640 medium to 3, 1.1, 0.37, 0.12, 0.04, 0.014, 0.005 and 0.002 μM, and the concentration of DMSO was 5%. 5 μL of the diluted compound was added to the 50 μL cell culture system, the culture was cultured in a 5% CO2, 37° C. cell incubator for 60 min, 300 ng/mL of M-CSF was added to the cells, and the mixture was stimulated in the 37° C. cell incubator for 1 min, added 50 μL of cell lysis buffer, and stored in a refrigerator at −80° C.
100 μL/well of the p-CSF1R capture antibody diluted to 0.8 μg/mL with PBS was added to the ELISA plate, and the plate was coated on a shaker at room temperature overnight. The culture was washed with PBST, and then added blocking solution and incubated at room temperature for 2 h. The culture was washed with PBST, added 90 μL of cell lysis buffer, and incubated on a shaker at 25° C. for 2 h. The plate was washed with PBST three times, added 100 μL of anti-p-tyrosine-HRP detection antibody diluted with 0.1% PBS-BSA diluent, and incubated on a shaker at 25° C. for 2 h. The plate was washed with PBST washing liquid, added 100 μL of chromogenic substrate and incubated at room temperature for 10-20 min. The reaction was stopped by adding 50 μL of 2N H2SO4. The optical density signal (450/570 nm) of each well was detected in Labsystems Multiskan K3 or Envision.
wherein • Drug-treated well read-out: indicating the optical density signal of a cell well with the test compound treatment. • Background read-out: indicating the optical density signal of a well without cells but with cell lysis buffer. • Cell well read-out: indicating the optical density signal of a cell well not treated with the compound. 6. Calculation of IC50: obtained by using XL-Fit 5.3 software. 7. Test results

Ba/F3^BCR-FMS-11 cells = test: Cell proliferation experiment (Ba/F3^BCR-FMS-11, cckit-8); format: cell-based, mouse; details: Ba/F3^BCR-FMS-11 cell proliferation
Description: Cell Proliferation Experiment
Ba/F3^BCR-FMS-11, mouse primary B lymphocytes stably expressing the BCR-FMS fusion gene. The cells were cultured in an RPMI 1640 medium containing 10% FBS.
as §1
• cckit-8 kit: Dojindo, 9 CK04; • Envision: Perkin Elmer; • Cell culture plate: Facol, 9353027. 3. Experimental steps
The BCR-FMS fusion gene was transfected into Ba/F3 cells, and the cell line Ba/F3^BCR-FMS-11 that stably expresses BCR-FMS and grows depending on CSF-1R was screened. Ba/F3^BCR-FMS-11 cell proliferation experiments is completed by using the Cell Counting kit cckit-8 in a 96-well plate. In a 96-well plate, 5000/well of Ba/F3^BCR-FMS-11 cells were inoculated at 100 μL/well. […] 10 μL of the compound dilutions with the above 8 concentrations were added to the culture cell wells. The culture was incubated in a 37° C. and 5% CO2 cell incubator for 72 hours. 10 μL of Cell Counting kit cckit-8 detection reagent was added to each well, and incubated at 37° C. and 5% CO2 in a cell incubator for another 1 h. The optical density absorption value at 450 nm of each well was detected by using Perkin Elmer Envision instrument.
wherein • Drug-treated well read-out: indicating the optical density signal of a cell well with the test compound treatment. • Cell well read-out: indicating the optical density signal of a cell well not treated with the test compound (only 0.5% DMSO). • Background read-out: indicating the optical density signal of a well with the cell medium. 5. Calculation of IC50: obtained by using XL-Fit 5.3 software. 6. Test results

Recombinant human CSF1R kinase, sequence (P07333 20-972): as above

IC50 [1] | IC50 [2] | IC50 (Ba/F3^BCR-FMS-11 cells; Mus musculus, 72 h) | IC50 (Ba/F3^BCR-FMS-11 cells; 72 hours) | SMILES | IC50 (Ba/F3^BCR-FMS-11 cells; Mus musculus, 72 hours)
4 nM | 21 nM | 8 nM |  | CC(C)n1cncc(C(=O)Nc2ccc(Oc3ccnc(-c4cnn(C)c4)c3)cn2)c1=O [Compound 56] | 
24 nM | 43 nM | 12 nM |  | CC(C)n1cc(Cl)cc(C(=O)Nc2ccc(Oc3ccnc(-c4cnn(C)c4)c3)cn2)c1=O [Compound 57] | 
69 nM | 126 nM | 179 nM |  | Cn1cc(-c2cc(Oc3ccc(NC(=O)c4nccn(C)c4=O)nc3)ccn2)cn1 [Compound 58] | 
8 nM | 14 nM | 15 nM |  | CC(C)n1nccc(C(=O)Nc2ccc(Oc3ccnc(-c4cnn(C)c4)c3)cn2)c1=O [Compound 60] | 
45 nM | 75 nM | 87 nM |  | Cn1cc(-c2cc(Oc3ccc(NC(=O)c4cccn(C(F)F)c4=O)nc3)ccn2)cn1 [Compound 61] | 
20 nM | 9 nM | 32 nM |  | Cc1ncc(-c2cc(Oc3ccc(NC(=O)c4cnc(C)n(C)c4=O)nc3)ccn2)s1 [Compound 62] | 
9 nM | 5 nM | 8 nM |  | Cc1ncc(C(=O)Nc2ccc(Oc3ccnc(Nc4cnn(C)c4)c3)cn2)c(=O)n1C [Compound 63] | 
16 nM | 21 nM | 40 nM |  | Cc1ncc(C(=O)Nc2ccc(Oc3ccnc(-c4ccc5nccn5c4)c3)cn2)c(=O)n1C [Compound 64] | 
5 nM | 10 nM | 8 nM |  | Cc1ncc(C(=O)Nc2ccc(Oc3ccnc(Nc4ccccn4)c3)cn2)c(=O)n1C [Compound 65] | 
54 nM | 23 nM | 55 nM |  | Cc1ncc(C(=O)Nc2ccc(Oc3ccnc(-c4ccn5ccnc5c4)c3)cn2)c(=O)n1C [Compound 66] | 
33 nM | 9 nM |  | 25 nM | Cn1cc(Nc2cc(Oc3ccc(NC(=O)c4cccn(C)c4=O)nc3)ccn2)cn1 [Compound 67] | 
7 nM | 6 nM | 12 nM |  | Cc1ncc(C(=O)Nc2ccc(Oc3ccnc(Nc4ccn(C(F)F)n4)c3)cn2)c(=O)n1C [Compound 68] | 
3 nM | 3 nM | 4 nM |  | O=C(Nc1ccc(Oc2ccnc(Nc3ccn(C(F)F)n3)c2)cn1)c1cnc2n(c1=O)CCC2 [Compound 69] | 
32 nM | 203 nM | 225 nM |  | CC(C)n1cccc(C(=O)Nc2ccc(Oc3ccnc(-c4ccnn4C)c3)cn2)c1=O [Compound 70] | 
10 nM | 36 nM | 51 nM |  | CC(C)n1cccc(C(=O)Nc2ccc(Oc3ccnc(-c4ccn(C)n4)c3)cn2)c1=O [Compound 71] | 
14 nM | 16 nM | 7 nM |  | Cn1cc(-c2cc(Oc3ccc(NC(=O)c4cc5ccccc5n(C)c4=O)nc3)ccn2)cn1 [Compound 72] | 

IC50 [1] | IC50 [2] | IC50 (Ba/F3^BCR-FMS-11 cells; Mus musculus, 72 h) | IC50 (Ba/F3^BCR-FMS-11 cells; 72 hours) | SMILES | IC50 (Ba/F3^BCR-FMS-11 cells; Mus musculus, 72 hours)
11 nM | 31 nM | 17 nM |  | CC(C)c1ncc(C(=O)Nc2ccc(Oc3ccnc(-c4cnn(C)c4)c3)cn2)c(=O)n1C [Compound 73] | 
8 nM | 14 nM | 7 nM |  | Cc1c(F)cc(C(=O)Nc2ccc(Oc3ccnc(Nc4cnn(C)c4)c3)cn2)c(=O)n1C [Compound 75] | 
5 nM | 18 nM | 4 nM |  | Cc1c(F)cc(C(=O)Nc2ccc(Oc3ccnc(Nc4ccnn4C)c3)cn2)c(=O)n1C [Compound 76] | 
6 nM | 10 nM | 5 nM |  | Cn1nccc1Nc1cc(Oc2ccc(NC(=O)c3cc(F)cn(C)c3=O)nc2)ccn1 [Compound 77] | 
15 nM | 11 nM | 11 nM |  | Cn1cc(Nc2cc(Oc3ccc(NC(=O)c4cc(F)cn(C)c4=O)nc3)ccn2)cn1 [Compound 78] | 
4 nM | 3 nM | 5 nM |  | Cn1cc(-c2cc(Oc3ccc(NC(=O)c4cc(F)cn(C)c4=O)nc3)ccn2)cn1 [Compound 80] | 
6 nM | 11 nM | 9 nM |  | COCCn1cccc(C(=O)Nc2ccc(Oc3ccnc(-c4cnn(C)c4)c3)cn2)c1=O [Compound 82] | 
9 nM | 13 nM | 7 nM |  | Cn1cc(-c2cc(Oc3ccc(NC(=O)c4cccn(C5COC5)c4=O)nc3)ccn2)cn1 [Compound 83] | 
6 nM | 10 nM | 8 nM |  | Cn1cc(-c2cc(Oc3ccc(NC(=O)c4cccn(CCO)c4=O)nc3)ccn2)cn1 [Compound 84] | 
5 nM | 5 nM | 7 nM |  | Cn1cc(-c2cc(Oc3ccc(NC(=O)c4cccn(C)c4=O)nc3)ccn2)cn1 [Compound 85] | 
5 nM | 7 nM | 7 nM |  | CC(C)n1cccc(C(=O)Nc2ccc(Oc3ccnc(-c4cnn(C)c4)c3)cn2)c1=O [Compound 86] | 
3 nM | 10 nM | 8 nM |  | C=CCn1cccc(C(=O)Nc2ccc(Oc3ccnc(-c4cnn(C)c4)c3)cn2)c1=O [Compound 88] | 
8 nM | 16 nM | 8 nM |  | Cn1cc(-c2cc(Oc3ccc(NC(=O)c4cccn(C5CCC5)c4=O)nc3)ccn2)cn1 [Compound 89] | 
6 nM | 10 nM | 2 nM |  | Cn1cc(-c2cc(Oc3ccc(NC(=O)c4ccc(C(F)(F)F)n(C)c4=O)nc3)ccn2)cn1 [Compound 90] | 
3 nM | 9 nM | 3 nM |  | Cc1ccc(C(=O)Nc2ccc(Oc3ccnc(-c4cnn(C)c4)c3)cn2)c(=O)n1C [Compound 91] | 
17 nM | 61 nM | 13 nM |  | Cc1nc(NC(=O)c2cccn(C(C)C)c2=O)ccc1Oc1ccnc(-c2cnn(C)c2)c1 [Compound 93, 1-isopropyl-N-(6-methyl-5-((2-(1-methyl-1H-pyrazol-4-yl)pyridin-4-yl)oxy)pyridin-2-yl)-2-oxo-1,2-dihydropyridine-3-carboxamide] | 

SMILES | IC50 [1] | IC50 [2] | IC50 (Ba/F3^BCR-FMS-11 cells; Mus musculus, 72 h) | IC50 (Ba/F3^BCR-FMS-11 cells; 72 hours) | IC50 (Ba/F3^BCR-FMS-11 cells; Mus musculus, 72 hours)
CN(C)CCn1cccc(C(=O)Nc2ccc(Oc3ccnc(-c4cnn(C)c4)c3)cn2)c1=O [Compound 81, 1-(2-(dimethylamino)ethyl)-N-(5-((2-(1-methyl-1H-pyrazol-4-yl)pyridin-4-yl)oxy)pyridin-2-yl)-2-oxo-1,2-dihydropyridine-3-carboxamide] | 34 nM | 145 nM |  |  | 143 nM
